Measurements: patent US10770169B2, “Method of providing a treatment to a subject based on a dynamic pathway map” (THE REGENTS OF THE UNIVERSITY OF CALIFORNIA, priority 2010, dated 2020)
Where two headings read alike, the source gives them in different places.

Experiments:
[1] = test system: luminal, basal, claudin-low and ERBB2AMP breast cancer cell lines; test: Associations of clinically relevant subtypes and response (non-parametric ANOVA or t-test on GI50 ranks); type: cell-based, human; conditions: Table 6; most sensitive subtype, FDR p<0.20
Summary of the method: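 Significance was set at FDR p<0.20 after combining p-values across three test sets. Subtype–response associations came from rank-based non-parametric ANOVA or t-tests on GI50. For three-class comparisons, post-hoc tests of each group against the rest identified the most sensitive group, with FDR correction.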

[2] = test system: panel of 55 breast cancer cell lines; test: Cell growth inhibition assay (Cell Titer Glo, 72 h, 9 doses; GI50, TGI, LC50); type: cell-based, human

Compound: CCN(CC)CCCCNc1ncc2cc(-c3cc(OC)cc(OC)c3)c(NC(=O)NC(C)(C)C)nc2n1 [PD173074]
- Subtype specificity [1]: Claudin-low
- GI50 ([2]; Homo sapiens, 600MPE cell line, censored GI50 values, read-out: GI50 (converted)): 9.77 µM
- GI50 ([2]; Homo sapiens, AU565, AU565 cell line, censored GI50 values, read-out: GI50 (converted)): 7.41 µM
- GI50 ([2]; Homo sapiens, AU565, cell line AU565, read-out: GI50 (converted)): 7.41 µM
- GI50 ([2]; Homo sapiens, BT-20, BT20 cell line, censored GI50 values, read-out: GI50 (converted)): 15.8 µM
- GI50 ([2]; Homo sapiens, BT-20, cell line BT20, read-out: GI50 (converted)): 15.8 µM
- GI50 ([2]; Homo sapiens, BT-474, cell line BT474, read-out: GI50 (converted)): 33.1 µM
- GI50 ([2]; Homo sapiens, BT-549, BT549 cell line, censored GI50 values, read-out: GI50 (converted)): 7.41 µM
- GI50 ([2]; Homo sapiens, BT-549, cell line BT549, read-out: GI50 (converted)): 7.41 µM
- GI50 ([2]; Homo sapiens, HCC38, cell line HCC38, read-out: GI50 (converted)): 2.95 µM
- GI50 ([2]; Homo sapiens, HCC70, cell line HCC70, read-out: GI50 (converted)): 7.08 µM
- GI50 ([2]; Homo sapiens, HCC202, cell line HCC202, read-out: GI50 (converted)): 8.51 µM
- GI50 ([2]; Homo sapiens, HCC1143, HCC1143 cell line, censored GI50 values, read-out: GI50 (converted)): 13.5 µM
- GI50 ([2]; Homo sapiens, HCC1143, cell line HCC1143, read-out: GI50 (converted)): 13.5 µM
- GI50 ([2]; Homo sapiens, HCC1187, HCC1187 cell line, censored GI50 values, read-out: GI50 (converted)): 10.7 µM
- GI50 ([2]; Homo sapiens, HCC1187, cell line HCC1187, read-out: GI50 (converted)): 10.7 µM
- GI50 ([2]; Homo sapiens, HCC1395, HCC1395 cell line, censored GI50 values, read-out: GI50 (converted)): 0.617 µM
- GI50 ([2]; Homo sapiens, HCC1395, cell line HCC1395, read-out: GI50 (converted)): 0.617 µM
- GI50 ([2]; Homo sapiens, HCC1419, HCC1419 cell line, censored GI50 values, read-out: GI50 (converted)): 4.47 µM
- GI50 ([2]; Homo sapiens, HCC1419, cell line HCC1419, read-out: GI50 (converted)): 4.47 µM
- GI50 ([2]; Homo sapiens, HCC1428, HCC1428 cell line, censored GI50 values, read-out: GI50 (converted)): 6.76 µM
- GI50 ([2]; Homo sapiens, HCC1428, cell line HCC1428, read-out: GI50 (converted)): 6.76 µM
- GI50 ([2]; Homo sapiens, HCC1500, cell line HCC1500, read-out: GI50 (converted)): 24.5 µM
- GI50 ([2]; Homo sapiens, HCC1806, HCC1806 cell line, censored GI50 values, read-out: GI50 (converted)): 5.01 µM
- GI50 ([2]; Homo sapiens, HCC1806, cell line HCC1806, read-out: GI50 (converted)): 5.01 µM
- GI50 ([2]; Homo sapiens, HCC1937, HCC1937 cell line, censored GI50 values, read-out: GI50 (converted)): 7.59 µM
- GI50 ([2]; Homo sapiens, HCC1937, cell line HCC1937, read-out: GI50 (converted)): 7.59 µM
- GI50 ([2]; Homo sapiens, HCC1954, HCC1954 cell line, censored GI50 values, read-out: GI50 (converted)): 7.59 µM
- GI50 ([2]; Homo sapiens, HCC1954, cell line HCC1954, read-out: GI50 (converted)): 7.59 µM
- GI50 ([2]; Homo sapiens, MDA-MB-157, cell line MDAMB157, read-out: GI50 (converted)): 2.34 µM
- GI50 ([2]; Homo sapiens, MDA-MB-231, cell line MDAMB231, read-out: GI50 (converted)): 6.76 µM
- GI50 ([2]; Homo sapiens, MDA-MB-361, cell line MDAMB361, read-out: GI50 (converted)): 15.1 µM
- GI50 ([2]; Homo sapiens, MDA-MB-436, cell line MDAMB436, read-out: GI50 (converted)): 6.46 µM
- GI50 ([2]; Homo sapiens, MDA-MB-453, cell line MDAMB453, read-out: GI50 (converted)): 1.95 µM
- GI50 ([2]; Homo sapiens, MDA-MB-468, cell line MDAMB468, read-out: GI50 (converted)): 6.61 µM
- GI50 ([2]; Homo sapiens, SK-BR-3, cell line SKBR3, read-out: GI50 (converted)): 7.94 µM
- GI50 ([2]; Homo sapiens, SUM52PE, cell line SUM52PE, read-out: GI50 (converted)): 0.0229 µM
- GI50 ([2]; Homo sapiens, SUM149PT, cell line SUM149PT, read-out: GI50 (converted)): 9.12 µM
- GI50 ([2]; Homo sapiens, SUM-159-PT, cell line SUM159PT, read-out: GI50 (converted)): 6.46 µM
- GI50 ([2]; Homo sapiens, T47D, cell line T47D, read-out: GI50 (converted)): 13.5 µM
- GI50 ([2]; Homo sapiens, UACC-812, cell line UACC812, read-out: GI50 (converted)): 7.08 µM
- GI50 ([2]; Homo sapiens, UACC-893, cell line UACC893, read-out: GI50 (converted)): 6.92 µM
- GI50 ([2]; Homo sapiens, ZR-75-1, cell line ZR751, read-out: GI50 (converted)): 15.5 µM
- GI50 ([2]; Homo sapiens, cell line 600MPE, read-out: GI50 (converted)): 9.77 µM
- GI50 ([2]; Homo sapiens, cell line HCC2185, read-out: GI50 (converted)): 29.5 µM
- GI50 ([2]; Homo sapiens, cell line HCC3153, read-out: GI50 (converted)): 15.5 µM
- GI50 ([2]; Homo sapiens, cell line LY2, read-out: GI50 (converted)): 7.41 µM
- GI50 ([2]; Homo sapiens, cell line MDAMB134V, read-out: GI50 (converted)): 18.6 µM
- GI50 ([2]; Homo sapiens, cell line SUM1315MO, read-out: GI50 (converted)): 3.39 µM

Compound: Cc1cc(C(C)Nc2ccccc2)c2nc(N3CCOCC3)cc(=O)n2c1 (stereo not drawn) [TGX-221]
- Subtype specificity [1]: Luminal
- GI50 ([2]; 600MPE cell line, censored GI50 values, value is the negative log10 of mol/L): 5.09
- GI50 ([2]; AU565 cell line, censored GI50 values, value is the negative log10 of mol/L): 5.18
- GI50 ([2]; BT20 cell line, censored GI50 values, value is the negative log10 of mol/L): 4.77
- GI50 ([2]; BT474 cell line, censored GI50 values, value is the negative log10 of mol/L): 5.10
- GI50 ([2]; BT483 cell line, censored GI50 values, value is the negative log10 of mol/L): 5.37
- GI50 ([2]; CAMA1 cell line, censored GI50 values, value is the negative log10 of mol/L): 5.10
- GI50 ([2]; HCC38 cell line, censored GI50 values, value is the negative log10 of mol/L): 5.11
- GI50 ([2]; HCC70 cell line, censored GI50 values, value is the negative log10 of mol/L): 5.98
- GI50 ([2]; HCC202 cell line, censored GI50 values, value is the negative log10 of mol/L): 5.20
- GI50 ([2]; HCC1187 cell line, censored GI50 values, value is the negative log10 of mol/L): 5.48
- GI50 ([2]; HCC1395 cell line, censored GI50 values, value is the negative log10 of mol/L): 5.13
- GI50 ([2]; HCC1419 cell line, censored GI50 values, value is the negative log10 of mol/L): 5.16
- GI50 ([2]; HCC1428 cell line, censored GI50 values, value is the negative log10 of mol/L): 4.77
- GI50 ([2]; HCC1954 cell line, censored GI50 values, value is the negative log10 of mol/L): 4.79
- GI50 ([2]; HCC3153 cell line, censored GI50 values, value is the negative log10 of mol/L): 4.38
- GI50 ([2]; LY2 cell line, censored GI50 values, value is the negative log10 of mol/L): 4.78
- GI50 ([2]; MDAMB134VI cell line, censored GI50 values, value is the negative log10 of mol/L): 4.78
- GI50 ([2]; MDAMB231 cell line, censored GI50 values, value is the negative log10 of mol/L): 4.61
- GI50 ([2]; MDAMB361 cell line, censored GI50 values, value is the negative log10 of mol/L): 4.75
- GI50 ([2]; MDAMB436 cell line, censored GI50 values, value is the negative log10 of mol/L): 4.72
- GI50 ([2]; MDAMB453 cell line, censored GI50 values, value is the negative log10 of mol/L): 4.81
- GI50 ([2]; MDAMB468 cell line, censored GI50 values, value is the negative log10 of mol/L): 6.27
- GI50 ([2]; SKBR3 cell line, censored GI50 values, value is the negative log10 of mol/L): 5.33
- GI50 ([2]; SUM159PT cell line, censored GI50 values, value is the negative log10 of mol/L): 4.49
- GI50 ([2]; SUM1315MO2 cell line, censored GI50 values, value is the negative log10 of mol/L): 5.04
- GI50 ([2]; cell line 600MPE, value is the negative log10 of mol/L): 5.09
- GI50 ([2]; cell line AU565, value is the negative log10 of mol/L): 5.18
- GI50 ([2]; cell line BT20, value is the negative log10 of mol/L): 4.77
